According to ChEMBL document CHEMBL3507680, “University of Dundee, Gates Library screen for HepG2 cell viability”:

assay: Human HepG2 cell viability assay in 384 well format; assay type: toxicity, cell-based; parameters: dose 125 nL, time 70.5 hour; cytotoxicity at 70.5 h: concentration not given beside the values; settings: HepG2 cells, read-out: Inhibition

SMILES	cytotoxicity at 70.5 h [%]
COCCC1COC2(CCN(C(=O)CC3CCCC3)CC2)C1 (centres undefined)	-3.15
CCN1CCCC1CNCc1cc2cc(OC)ccc2[nH]c1=O (centres undefined)	-0.0295
N#Cc1cccnc1N1CCN(C(=O)c2cccs2)CC1	-3
CN(C)C(=O)COc1ccccc1CN1CCCC2(C1)CN(C)C(=O)O2 (centres undefined)	-7.63
CCN(c1ccsc1C(=O)N1CCSCC1)S(=O)(=O)c1ccc(Cl)cc1	-3.47
CCC(=O)N1CCC(c2cc(Nc3ncccn3)nc(C)n2)C1 (centres undefined)	-10.9
Cc1nc[nH]c1CN1CCN(C(=O)CN2CCCC2)[C@H]2CS(=O)(=O)C[C@H]21	3.25
CN(Cc1cnc(C(C)(C)C)nc1)Cc1nc2ccc(F)cc2[nH]1	-5.62
CN(C)Cc1ccccc1Cn1cncc1-c1cnn(C)c1	-3.97
Cc1cc(NC(=O)CCc2ccsc2)n(C)n1	-9.51
CN(C)[C@@H]1CCN(c2ncc(F)cn2)[C@H]1Cc1cccnc1	17.3
COc1cccc(C(=O)N2CCCC(C(=O)CCc3ccccc3)C2)c1 (centres undefined)	-0.206
CC(C)n1c(=O)c2ccccc2n(CCN(C)C)c1=O	-8.7
CCNc1ncc(CN2CCOC(Cc3cccc(OC)c3)C2)cn1 (centres undefined)	-2.81
CCN(CC)c1ncc(CNC2CCc3ncnn3C2)s1 (centres undefined)	-5.42
COc1cccc2cc(CNCc3ccnc(N4CCOCC4)c3)oc12	11.7
CCN(Cc1ccc2c(c1)OCO2)C(=O)c1ccc(=O)n(C)c1	-0.838
CCSCCNc1nc2c(s1)c(C)nn2C	-14.5
COCCC(=O)N1CCC2(COCc3cnc(N4CCOCC4)nc32)C1 (centres undefined)	-15.1
Cn1ccnc1SCCNC(=O)c1c[nH]nc1C1CCCCC1	-8.06
Cc1nc(-c2ccc(Cl)cc2)n(CC(=O)NC(C)C)c(=O)c1CCO	-8.99
O=C(c1ccccn1)N1CCc2ncnc(-c3ccncc3)c2CC1	-0.573
Cn1cnn(Cc2ccccc2F)c1=O	2.33

SMILES	cytotoxicity at 70.5 h [%]
CC(Cn1ccnc1)NS(=O)(=O)c1ccc(C#N)c(Cl)c1 (centres undefined)	-9.17
Cn1cc(C(=O)N2CCCC(Cc3cccc4ncccc34)C2)cn1 (centres undefined)	-3.73
O=C(Cn1ccc(=O)[nH]c1=O)Nc1ccccc1F	-4.99
COc1cc2c(cc1OC)S(=O)(=O)N(Cc1cc(C)on1)C2=O	-4.33
COc1ccc(Br)cc1NCC(=O)NC(C)(C#N)C1CC1 (centres undefined)	2.31
CC(C)(C)n1ncc2c1CCCC2NCc1ccc2c(c1)OCCO2 (centres undefined)	29.2
Cc1nc(CN(C)C2CCN(CCCc3ccccc3)C2)no1 (centres undefined)	-2.23
CC(C)NC(=O)[C@@H]1C[C@@H]2CCN(Cc3ccoc3)C[C@H]2O1	0.151
Cc1cc(C2CCN(S(=O)(=O)c3cn(C)cn3)CC2)ccn1	-9.79
c1cncc(COCc2nnc3n2CCN(CC2CC2)C3)c1	0.791
CC1CCN(CCNC(=O)c2ccn(-c3ccc(F)cc3)n2)CC1	-5.04
Cc1nc(C)c(CC(=O)N2CCN(CC(C)C)CC2)c(=O)[nH]1	2.2
CC(C)c1nnc(CN2CCc3ccc(S(N)(=O)=O)cc32)o1	-0.0777
CCC1=N[C@@]2(CC[C@@H]3CN(C(=O)NCc4ccccc4)C[C@@H]32)C(=O)N1	-7.28
N#Cc1ccc(C(=O)N2CC(c3nc(-c4ncccn4)no3)C2)cc1	-13.2
CCOC(=O)c1coc(N2CCN(Cc3cccc(OC)c3)C(=O)C2)n1	4.55
CN(C)c1ncc2c(n1)N(C)CCN(CC1CC1)C2=O	-2.69
CC(C)(O)c1cn(C[C@H]2C[C@@H]3CCN2C[C@@H]3C(=O)N2CCOCC2)nn1	-1.36
O=C(c1ccc(CNC2CCSC2)cc1)N1CCCC1 (centres undefined)	-0.303
CNS(=O)(=O)CCCN1CCCC1c1noc(C2CC2)n1 (centres undefined)	-6.19
CCS(=O)(=O)CC(=O)Nc1ccccc1N1CCc2ccccc21	-13.2
O=C(NC1CCC1)C1=NOC2(CCN(Cc3ccco3)C2)C1 (centres undefined)	6.54
COc1ccc2nnc(CCCC(=O)NCCc3ccccn3)n2n1	-3.59

SMILES	cytotoxicity at 70.5 h [%]
CC(C)c1nc2n(n1)CC(NCc1nnc(-c3ccco3)o1)CC2 (centres undefined)	-11.9
Cc1nc2c(C#N)cnn2c(C)c1CCC(=O)N(C)C1CC1	8.54
Cc1nn(C)c(C)c1S(=O)(=O)NCC(C)(O)c1ccc2c(c1)OCO2 (centres undefined)	-1.59
CCc1nsc(N2CCC3(CC2)OCCO3)n1	-8.49
c1cc(-c2nnc([C@H]3CCNC3)o2)ccn1	-2.31
CCN(CC)S(=O)(=O)CCNc1ncnc2cc(F)c(F)cc12	-1.89
CC(=O)NC1CCCN(C(=O)NCc2cccnc2-n2cccn2)C1 (centres undefined)	3.84
CC(C)(C)OC(=O)NC1(c2noc(-c3ccoc3)n2)CCC1	-6.71
COc1ccc(C(=O)N2C[C@@H](C(=O)O)[C@H](c3cccc(F)c3)C2)c(O)c1	5.73
CS(=O)(=O)Cc1cc(Cl)c2c(c1)OCCCO2	-3.38
CC(NC(=O)CCCOc1ccccc1)c1nnc2n1CCCCC2 (centres undefined)	-20.9
Cc1cc(-c2nn(C)c(Cl)c2CN2CCN(C)C(C(=O)O)C2)no1 (centres undefined)	-5.8
O=C(CN1CCOC(CNc2cccnn2)C1)NCc1cccs1 (centres undefined)	-0.0167
O=c1[nH]ccc2cc(-c3cc(O)cc(CCC4CCCCN4)c3)ccc12 (centres undefined)	-7.29
Cc1cnc(NC(=O)N2CCCCCC2)s1	-4.75
CC1=CC[C@@H]2CN(C(=O)c3ccc(-c4nc[nH]n4)cc3)C[C@@H]2C1	11
COCCn1nc(C(=O)N2CCCC2c2cccc(F)c2)ccc1=O (centres undefined)	-8.14
Cn1cc(C[C@H]2[C@H](N3CCOCC3)CCN2c2ncc(F)cn2)cn1	3.47
CCCN1CCC(c2cc(CCOc3ccc(C(F)(F)F)cc3)[nH]n2)C1 (centres undefined)	0.882
CCOC(=O)CN(C)Cc1cnc(C)s1	7.03
Cc1cccc(NC(=O)N2CCN(Cc3nnc(C(C)C)o3)CC2)c1	-7.45
Cc1cc(C)n(C2CN(c3nc(-c4ccncc4)nc4c3CCC4)C2)n1	-8.99
CC(C)CN(Cc1ccc(-n2cncn2)cc1)Cc1ccccn1	-10.8

SMILES	cytotoxicity at 70.5 h [%]
Cc1ccc(OCCC(=O)N(C)CC(=O)Nc2cc(C)on2)c(C)c1	-4.37
CC(C)c1cc(C(=O)N2CCCN(Cc3ccccc3)CC2)n[nH]1	-5.87
CCS(=O)(=O)CCNC(=O)NC(C)c1cc(C)sc1C (centres undefined)	-15.4
COc1c(C2CCCN2c2ncnc3sccc23)c(C)nn1C (centres undefined)	-2.24
COC(=O)N1CCC(Nc2cccc(F)c2C(C)=O)CC1	-10.1
COCC1c2c(cnn2CC2CC2)CCN1Cc1nccs1 (centres undefined)	-4.64
COc1ccccc1C1Cn2c(C)cnc2CN1Cc1c[nH]nc1C (centres undefined)	-12.2
O=C(CCSc1ccccc1)NCC1CCN(Cc2ccsc2)CC1	4.4
CN(C)Cc1nn(C)c2c1CCN(C(=O)CC1CC1)C2	39.3
CCNC(c1cccnc1)c1ccc(F)c(C)c1 (centres undefined)	1.17
Cc1cc(NC(=O)N2CCN(C)CC2C)n(C)n1 (centres undefined)	-6.62
CC(=O)N1CC[C@@H]2O[C@H](C(=O)Nc3nc(C)cs3)C[C@@H]21	-3.43
CN(C)C(=O)N1C[C@@H]2CC[C@H](C1)N(Cc1nnc(C3CC3)o1)C2	-16.8
COc1ccc(CN2CCCC3(CCN(c4ccsc4)C3=O)C2)cc1 (centres undefined)	2.29
CCN1CC(C(=O)NCc2cccnc2-n2cccn2)CC1=O (centres undefined)	-7.76
CCS(=O)(=O)Nc1cnn(Cc2cccc(C)c2)c1	-3.36
CN(CCCSc1ccccc1)C(=O)Cn1ncc(N(C)C)cc1=O	-7.24
Cc1cnc(NS(=O)(=O)c2ccccc2)s1	-10
CC(OCC1CC1)C(=O)N1CCCN(Cc2nccn2C)CC1 (centres undefined)	-11.2
Cc1cc(NC(=O)N2CCCC2C(C)(C)O)c2ncccc2c1 (centres undefined)	-75.7
Cc1nn(C)c(C)c1CC(=O)N1CCCC(n2cccn2)C1 (centres undefined)	-2.45
Cc1ccc(NC2CCN(C(=O)c3cccnc3O)CC2)nn1	16.5
COc1ccc(CN2CCc3nnc(COCCN(C)C)n3CC2)cc1	-17.3

SMILES	cytotoxicity at 70.5 h [%]
O=C(c1cnccn1)N1CC[C@H]2[C@@H]1CCC(=O)N2c1cccnc1	-17.4
CC(NCc1ccc(-c2ccc(Cl)cc2)o1)c1nnc2n1CCC2 (centres undefined)	-4.6
OCCCN1CCOC(c2ccc(F)cc2)C1 (centres undefined)	-6.31
Cc1cnc(NCCc2c[nH]cn2)nc1-c1ccnn1C	-11.6
CN(Cc1c(F)cccc1Cl)C(=O)Nc1cnn(CC(N)=O)c1	6.9
Cn1ccnc1CN1CCC2(CC1)CN(c1cncnc1)C(=O)CO2	-3.27
O=C(Cn1cnc2cc3c(cc21)OCCCO3)NC1CCCC1	25.4
CC(C)C(=O)N1CCCC1C(=O)Nc1ccc(F)c(F)c1 (centres undefined)	-14.3
COC1CCN(S(=O)(=O)N2CC(c3ccccc3)C(C)(C)C2)CC1 (centres undefined)	27.1
Cc1ncsc1CN1CC[C@H]2OCC[C@@]2(C(=O)N2CCCO2)C1	-2.27
COc1ccc(CN2CCCC(Cn3nc(C)nc3C)C2)cc1F (centres undefined)	-8.47
CC(CNC(=O)c1ccncc1F)Oc1ccc(F)cc1 (centres undefined)	-0.61
CCc1ccccc1OCCN1CC[C@@]2(O)CCNC[C@H]2C1	-3.34
COc1cccc(-c2nccc(C3CCCN3C)n2)c1 (centres undefined)	26.3
Cn1ncc(N2CCOC(CCNC(=O)CO)C2)cc1=O (centres undefined)	13.3
CNC(=O)c1sc2ccccc2c1C1CCN(c2cc(C)nc(C)n2)C1 (centres undefined)	18.1
COc1ccc2c(c1)OCC(CNC(=O)NC(C)(C)C)C2 (centres undefined)	-0.00962
Cc1ccc(CNC(=O)c2cc(CN3CCC(O)CC3)on2)s1	-18
CNc1cc(N2CCC(O)(CNC(=O)c3ccc(C)nc3)C2)ncn1 (centres undefined)	-6.58
CC1CC(=O)c2cc(C(=O)N3CCN(C)CC3)c(=O)[nH]c2C1 (centres undefined)	-5.53
C[C@@H]1CN(c2ccc(Cl)cn2)C[C@]1(C)O	3.11
CC(CN1CCC(CCO)CC1)n1cnc2ccccc21 (centres undefined)	-11.4
